Measurements reported in ChEMBL document CHEMBL1146649, “New highly active taxoids from 9 beta-dihydrobaccatin-9,10-acetals. Part 5” (2004).
In brackets after ≈: the same amount, converted by molar mass.

Tests used:
Mus musculus [1] = assay: Maximum rate of body weight loss after peroral administration of 12.0 mg/kg of compound in mice; <0 indicates no body weight loss; format: functional; conditions: route oral
Mus musculus [2] = assay: Maximum rate of body weight loss after intravenous administration of 12.0 mg/kg of compound in mice; <0 indicates no body weight loss; format: functional
Mus musculus [3] = assay: Effective dose of intravenously administered compound against B16 melanoma BL6 cells implanted into mice; range is 5.3-18.0; format: functional; conditions: B16, iv
Mus musculus [4] = assay: Antitumor activity of 8.0 mg/kg of perorally administered compound against B16 melanoma BL6 cells implanted into mice, value reported is percent compared to control; format: functional; conditions: route oral
Mus musculus [5] = assay: Number of mice died at 18.0 mg/kg of intravenous dose of compound among the total 6 mice tested; format: functional
PC-12 = assay: Concentration required to inhibit human PC-12 cell line growth by 50% at 72 hr continuous exposure; format: functional; conditions: PC-12, 72 h
Mus musculus [6] = assay: Antitumor activity of 18.0 mg/kg of intravenously administered compound against B16 melanoma BL6 cells implanted into mice, value reported is percent compared to control; format: functional; conditions: route intravenous
Mus musculus [7] = assay: Maximum rate of body weight loss after peroral administration of 8.0 mg/kg of compound in mice; <0 indicates no body weight loss; format: functional; conditions: route oral
Mus musculus [8] = assay: Number of mice died at 27.0 mg/kg of peroral dose of compound among the total 6 mice tested; format: functional; conditions: route oral
Mus musculus [9] = assay: Antitumor activity of 5.3 mg/kg of intravenously administered compound against B16 melanoma BL6 cells implanted into mice, value reported is percent compared to control; format: functional; conditions: route intravenous
Mus musculus [10] = assay: Number of mice died at 18.0 mg/kg of peroral dose of compound among the total 6 mice tested; format: functional; conditions: route oral
PC-6 [11] = assay: Concentration required to inhibit human PC-6 cell line growth by 50% at 72 hr continuous exposure; format: functional; conditions: PC-6, 72 h
Mus musculus [12] = assay: Number of mice died at 12.0 mg/kg of intravenous dose of compound among the total 6 mice tested; format: functional
PC-6 [13] = assay: Concentration required to inhibit human PC-6/VP1-1 cell line growth by 50% at 72 hr exposure; format: functional; conditions: PC-6, 72 h
Mus musculus [14] = assay: Maximum rate of body weight loss after intravenous administration of 5.3 mg/kg of compound in mice; <0 indicates no body weight loss; format: functional
Mus musculus [15] = assay: Antitumor activity of 12.0 mg/kg of perorally administered compound against B16 melanoma BL6 cells implanted into mice, value reported is percent compared to control; format: functional; conditions: route oral
Mus musculus [16] = assay: Maximum rate of body weight loss after peroral administration of 18.0 mg/kg of compound in mice; format: functional; conditions: route oral
Mus musculus [17] = assay: Antitumor activity of 8.0 mg/kg of intravenously administered compound against B16 melanoma BL6 cells implanted into mice, value reported is percent compared to control; format: functional; conditions: route intravenous
Mus musculus [18] = assay: Maximum rate of body weight loss after intravenous administration of 8.0 mg/kg of compound in mice; <0 indicates no body weight loss; format: functional
Mus musculus [19] = assay: Antitumor activity of 27.0 mg/kg of perorally administered compound against B16 melanoma BL6 cells implanted into mice, value reported is percent compared to control; format: functional; conditions: route oral
Mus musculus [20] = assay: Number of mice died at 8.0 mg/kg of intravenous dose of compound among the total 6 mice tested; format: functional
Mus musculus [21] = assay: Number of mice died at 12.0 mg/kg of peroral dose of compound among the total 6 mice tested; format: functional; conditions: route oral
P388 = assay: Concentration required to inhibit mouse P388 cell line growth by 50% at 72 hr continuous exposure; format: functional; conditions: P388, 72 h
Mus musculus [22] = assay: Maximum rate of body weight loss after intravenous administration of 18.0 mg/kg of compound in mice; format: functional
Mus musculus [23] = assay: Antitumor activity of 12.0 mg/kg of intravenously administered compound against B16 melanoma BL6 cells implanted into mice, value reported is percent compared to control; format: functional; conditions: route intravenous
Mus musculus [24] = assay: Antitumor activity of 18.0 mg/kg of perorally administered compound against B16 melanoma BL6 cells implanted into mice, value reported is percent compared to control; format: functional; conditions: route oral
Mus musculus [25] = assay: Maximum rate of body weight loss after peroral administration of 27.0 mg/kg of compound in mice; format: functional; conditions: route oral
Mus musculus [26] = assay: Number of mice died at 8.0 mg/kg of peroral dose of compound among the total 6 mice tested; format: functional; conditions: route oral
Mus musculus [27] = assay: Effective dose of perorally administered compound against B16 melanoma BL6 cells implanted into mice; range is 12.0-27.0; format: functional; conditions: B16, po
PC-6 [28] = assay: Concentration required to inhibit human PC-6/VCR29-9 cell line growth by 50% at 72 hr exposure; format: functional; conditions: PC-6, 72 h
Mus musculus [29] = assay: Number of mice died at 5.3 mg/kg of intravenous dose of compound among the total 6 mice tested; format: functional
Mus musculus [30] = assay: Number of mice died at 11.9 mg/kg of peroral dose, among the total 6 mice tested; format: functional; conditions: route oral
Mus musculus [31] = assay: Number of mice died at 5.3 mg/kg of peroral dose of compound among the total 6 mice tested; format: functional; conditions: route oral
Mus musculus [32] = assay: Maximum rate of body weight loss after intravenous administration of 7.9 mg/kg of compound in mice; format: functional
Mus musculus [33] = assay: Maximum rate of body weight loss after peroral administration of 11.9 mg/kg of compound in mice; format: functional; conditions: route oral
Mus musculus [34] = assay: Effective dose of perorally administered compound against B16 melanoma BL6 cells implanted into mice; range is 7.9-11.0; format: functional; conditions: B16, po
Mus musculus [35] = assay: Number of mice died at 7.9 mg/kg of intravenous dose of compound among the total 6 mice tested; format: functional
Mus musculus [36] = assay: Maximum rate of body weight loss after intravenous administration of 11.9 mg/kg of compound in mice; format: functional
Mus musculus [37] = assay: Antitumor activity of 7.9 mg/kg of intravenously administered compound against B16 melanoma BL6 cells implanted into mice, value reported is percent compared to control; format: functional; conditions: route intravenous
B16 [38] = assay: Antitumor activity of 11.9 mg/kg of intravenously administered compound against B16 melanoma BL6 cells implanted into mice, value reported is percent compared to control; format: functional, Mus musculus; conditions: route intravenous
Mus musculus [39] = assay: Number of mice died at 17.8 mg/kg of peroral dose among the total 6 mice tested; format: functional; conditions: route oral
Mus musculus [40] = assay: Maximum rate of body weight loss after peroral administration of 5.3 mg/kg of compound in mice; format: functional; conditions: route oral
Mus musculus [41] = assay: Number of mice died at 7.9 mg/kg of peroral dose of compound among the total 6 mice tested; format: functional; conditions: route oral
Mus musculus [42] = assay: Antitumor activity of 5.3 mg/kg of perorally administered compound against B16 melanoma BL6 cells implanted into mice, value reported is percent compared to control; format: functional; conditions: route oral
Mus musculus [43] = assay: Number of mice died at 11.9 mg/kg of intravenous dose, among the total 6 mice tested; format: functional
Mus musculus [44] = assay: Maximum rate of body weight loss after intravenous administration of 5.3 mg/kg of compound in mice; format: functional
Mus musculus [45] = assay: Antitumor activity of 7.9 mg/kg of perorally administered compound against B16 melanoma BL6 cells implanted into mice, value reported is percent compared to control; format: functional; conditions: route oral
Mus musculus [46] = assay: Effective dose of intravenously administered compound against B16 melanoma BL6 cells implanted into mice; range is 5.3-11.9; format: functional; conditions: B16, iv
Mus musculus [47] = assay: Maximum rate of body weight loss after peroral administration of 17.8 mg/kg of compound in mice; format: functional; conditions: route oral
Mus musculus [48] = assay: Maximum rate of body weight loss after peroral administration of 7.9 mg/kg of compound in mice; format: functional; conditions: route oral
Mus musculus [49] = assay: Number of mice died at 17.8 mg/kg of intravenous dose among the total 6 mice tested; format: functional
B16 [50] = assay: Antitumor activity of 11.9 mg/kg of perorally administered compound against B16 melanoma BL6 cells implanted into mice, value reported is percent compared to control; format: functional, Mus musculus; conditions: route oral
B16 [51] = assay: Antitumor activity of 17.8 mg/kg of perorally administered compound against B16 melanoma BL6 cells implanted into mice, value reported is percent compared to control; format: functional, Mus musculus; conditions: route oral
Mus musculus [52] = assay: Effective dose of intravenously administered compound against B16 melanoma BL6 cells implanted into mice; range is 7.8-17.8; format: functional; conditions: B16, iv
B16 [53] = assay: Effective dose of perorally administered compound against B16 melanoma BL6 cells implanted into mice; format: functional; conditions: Mus musculus, B16, po

CC(=O)O[C@@]12CO[C@@H]1C[C@H](O)[C@@]1(C)[C@@H]3OC(CN4CCOCC4)O[C@@H]3C3=C(C)[C@@H](OC(=O)[C@H](O)[C@@H](NC(=O)OC(C)(C)C)c4ccccn4)C[C@@](O)([C@@H](OCc4ccccc4)[C@H]21)C3(C)C (some centres not stated)
BWLmax (Mus musculus [1]): <0%
BWLmax (Mus musculus [2]): <0%
ED50 (Mus musculus [3]): 18 mg/kg
IR (Mus musculus [4]): 27.2%
Mortality (Mus musculus [5]): 0
GI50 (PC-12): 0.13 ng/mL (≈ 0.143 nM)
IR (Mus musculus [6]): 95.6%
BWLmax (Mus musculus [7]): <0%
Mortality (Mus musculus [8]): 0
IR (Mus musculus [9]): 62.4%
Mortality (Mus musculus [10]): 0
GI50 (PC-6 [11]): 0.26 ng/mL (≈ 0.286 nM)
Mortality (Mus musculus [12]): 0
GI50 (PC-6 [13]): 0.0193 µg/mL (≈ 21.3 nM)
BWLmax (Mus musculus [14]): <0%
IR (Mus musculus [15]): 84.9%
BWLmax (Mus musculus [16]): 0.3%
IR (Mus musculus [17]): 87.2%
BWLmax (Mus musculus [18]): <0%
IR (Mus musculus [19]): 97.3%
Mortality (Mus musculus [20]): 0
Mortality (Mus musculus [21]): 0
GI50 (P388): 0.18 ng/mL (≈ 0.198 nM)
BWLmax (Mus musculus [22]): 3.7%
IR (Mus musculus [23]): 94.4%
IR (Mus musculus [24]): 93.3%
BWLmax (Mus musculus [25]): 4.5%
Mortality (Mus musculus [26]): 0
ED50 (Mus musculus [27]): 27 mg/kg
GI50 (PC-6 [28]): 2.43 ng/mL (≈ 2.68 nM)
Mortality (Mus musculus [29]): 0

CC(=O)O[C@@]12CO[C@@H]1CC[C@@]1(C)[C@@H]3O[C@H](CN(C)C)O[C@@H]3C3=C(C)[C@@H](OC(=O)[C@H](O)[C@@H](NC(=O)OC(C)(C)C)c4cccc(F)n4)C[C@@](O)([C@@H](OCc4ccccc4)[C@@H]12)C3(C)C
Mortality (Mus musculus [30]): 0
Mortality (Mus musculus [31]): 0
GI50 (PC-12): 0.62 ng/mL (≈ 0.714 nM)
BWLmax (Mus musculus [32]): 2.9%
BWLmax (Mus musculus [33]): 12.9%
IR (Mus musculus [9]): 67.6%
GI50 (PC-6 [11]): 0.38 ng/mL (≈ 0.438 nM)
ED50 (Mus musculus [34]): 11 mg/kg
Mortality (Mus musculus [35]): 0
BWLmax (Mus musculus [36]): 12%
IR (Mus musculus [37]): 91.5%
IR (B16 [38]): 95.6%
Mortality (Mus musculus [39]): 5
BWLmax (Mus musculus [40]): <0%
Mortality (Mus musculus [41]): 0
GI50 (PC-6 [13]): 0.0213 µg/mL (≈ 24.5 nM)
IR (Mus musculus [42]): 42.4%
Mortality (Mus musculus [43]): 0
BWLmax (Mus musculus [44]): 2%
IR (Mus musculus [45]): 91.5%
GI50 (P388): 0.67 ng/mL (≈ 0.772 nM)
ED50 (Mus musculus [46]): 11.9 mg/kg
BWLmax (Mus musculus [47]): 13.9%
BWLmax (Mus musculus [48]): 3.8%
GI50 (PC-6 [28]): 2.58 ng/mL (≈ 2.97 nM)
Mortality (Mus musculus [49]): 6
IR (B16 [50]): 97.4%
IR (B16 [51]): 94.8%
Mortality (Mus musculus [29]): 0

CC(=O)O[C@@]12CO[C@@H]1CC[C@@]1(C)[C@@H]3O[C@H](CN(C)C)O[C@@H]3C3=C(C)[C@@H](OC(=O)[C@H](O)[C@@H](NC(=O)OC(C)(C)C)c4nccs4)C[C@@](O)([C@@H](OCc4ccccc4)[C@@H]12)C3(C)C
ED50 (Mus musculus [52]): 17.8 mg/kg
GI50 (PC-12): 0.35 ng/mL (≈ 0.409 nM)
GI50 (PC-6 [11]): 0.27 ng/mL (≈ 0.315 nM)
ED50 (B16 [53]): 11.9 mg/kg
GI50 (PC-6 [13]): 0.0391 µg/mL (≈ 45.7 nM)
GI50 (P388): 0.25 ng/mL (≈ 0.292 nM)
GI50 (PC-6 [28]): 2.81 ng/mL (≈ 3.28 nM)
